Test results as given in patent publication US20220202811A1, “TREATMENT FOR RETINOIC ACID RECEPTOR-RELATED ORPHAN RECEPTOR Ɣ (RORƔ)-DEPENDENT CANCERS” (The Regents of the University of California, priority 2019, published 2022).
Entries after “also recorded” stand apart in the source; their conditions may differ.

Columns and labels:
[1] = test system: tumor-bearing KP^f/fC mice; assay: tumor-bearing KP^f/fC mice in vivo (AZD-0284, JTE-151); parameters: species or system mouse
Experimental: Next, the impact of JTE-151 was tested on tumor-bearing KP^f/fC mice in vivo. FIG. 51 is a schematic of the experimental design. KP^f/fC mice were allowed to develop tumors, then the tumor-bearing mice received vehicle or JTE-151, followed by analysis of the tumors at the end of the experiments. Different doses of JTE-151, i.e., at 30 mg/kg, 90 mg/kg, and 120 mg/kg body weight, were tested.
FIGS. 53-56 show examples of individual experiments where tumor-bearing KP^f/fC mice was treated with either vehicle or 90 mg/kg JTE-151 for 3 weeks in regimens as specified in the figures. For example, in FIGS. 53 and 55, the mice received 90 mg/kg JTE-151 once daily for 3 weeks. In FIG. 54, the mice received 90 mg/kg JTE-151 once daily for 1 week, followed by twice daily for another 2 weeks. At the end of each experiment, tumors were analyzed for different parameters including tumor mass, cell number, EpCAM positivity, CD133 positivity, EpCAM/CD133 positivity, cellularity, and IL-17 level. […] It was not clear whether the initial tumor size of the non-responder mouse was unusually large due to variances between different mice.
Similarly, the anti-cancer effect of JTE-151 was tested on tumor-bearing KP^f/fC mice in vivo at a higher dose of 120 mg/kg (FIGS. 59-61 showing three individual experiments). For each experiment, one mouse was given vehicle treatment, and another mouse was given the JTE-151 regimen as specified in the figures. For example, in FIG. 59, the JTE-151 mouse received 120 mg/kg body weight of JTE-151 for 2 weeks and then 90 mg/kg JTE-151 for 1 week. In the first 1.5 weeks, JTE-151 was given once daily, and in the second 1.5 weeks, JTE-151 was given twice daily. As previously, at the end of each experiment, tumors were analyzed for different parameters including cell number, EpCAM positivity, EpCAM/CD133 positivity, and IL-17 level. In each of FIGS. 59-61, the horizontal axis of each graph represents the target (vehicle vs. JTE-151 mouse), and the vertical axis represents the specified measurement.

[2] = test system: non-germline KRAS/p53 organoids; assay: non-germline KRAS/p53 organoid assay; assay type: cell-based, mouse; conditions: 3 μM, 6 μM, 9 μM JTE-151; 4 days
Experimental: First, pharmacologic blockade of RORγ using JTE-151 was tested on pancreatic cell organoids as described above. Pancreatic cancer cells derived from two genetically engineered mouse models (GEMMS) were used for the organoid studies (FIGS. 47, 48). […] Then, electroporation was used to promote incorporation of the DNA into the pancreatic cells.
About 4,000 organoids from each of the non-germline and germline mouse models were plated as single cells in multi-well plates, as described above, and treated with JTE-151 for 4 days (FIG. 48). Organoid number and size were analyzed after treatment. […] In the quantification, different doses of JTE-151 were plotted along the horizontal axis, and the volume of organoids was expressed as relative to control along the vertical axis. […] Organoid volume was then analyzed. Different doses of JTE-151 were plotted along the horizontal axis, and the vertical axis represents relative organoid volume to control.

[3] = test system: primary patient-derived PDX204 pancreatic cancer cells; assay: PDX204 organoid assay; assay type: cell-based, human
Experimental: Moreover, the anti-cancer effect of JTE-151 was determined in an organoid assay using pancreatic cancer cells derived from mice bearing primary patient-derived xenografts.

KP^f/fC cells = assay: pancreatic tumorsphere formation assay; assay type: cell-based, mouse; conditions: SR2211 vs vehicle
Experimental: Pancreatic tumorsphere formation assays were performed and modified from (Rovira et al., 2010). Briefly, low-passage (<6 passages) WT or REM2-KP^f/fC cell lines were infected with lentiviral particles containing shRNAs; positively infected (red) cells were sorted 72 hours after transduction. 100-300 infected cells were suspended in tumorsphere media: 100 μl DMEM F-12 (Gibco, Life Technologies) containing 1× B-27 supplement (Gibco, Life Technologies), 3% FBS, 100 μM B-mercaptoethanol (Gibco, Life Technologies), 1× non-essential amino acids (Gibco, Life Technologies), 1× N2 supplement (Gibco, Life Technologies), 20 ng/ml EGF (Gibco, Life Technologies), 20 ng/ml bFGF2 (Gibco, Life Technologies), and 10 ng/ml ESGRO mLIF (Thermo Fisher). Cells in media were plated in 96-well ultra-low adhesion culture plates (Costar) and incubated at 37° C. for 7 days. KP^f/fC in vitro tumorsphere formation studies were conducted at a minimum of n=3 independent wells per cell line across two independent shRNA of n=3 wells; however, the majority of these experiments were additionally completed in >1 independently-derived cell lines n=3, at n=3 wells per shRNA.

[4] = test system: Msi2-reporter+ stem cells; assay: live imaging of REM2-KP^f/fC tumors; assay type: in vivo, mouse
Experimental: For imaging, mice were anesthetized by intraperitoneal injection of ketamine and xylazine (100/20 mg/kg). In order to visualize blood vessels and nuclei, mice were injected retro-orbitally with AlexaFluor 647 anti-mouse CD144 (VE-cadherin) antibody and Hoechst 33342 immediately following anesthesia induction. After 25 minutes, pancreatic tumors were removed and placed in HBSS containing 5% FBS and 2 mM EDTA. 80-150 μm images in 1024×1024 format were acquired with an HCX APO L20× objective on an upright Leica SP5 confocal system using Leica LAS AF 1.8.2 software. GFP cluster sizes were measure using ImageJ 1.51s software. 2 mice per treatment group were analyzed in this study; 6-10 frames were analyzed per mouse.

[5] = test system: LuCA KP lung cancer cells; assay: lung cancer tumor sphere formation; assay type: cell-based; conditions: 0.3 μM, 0.6 μM, 1 μM, and 1.2 μM; relative to control
Text: Then the number of formed tumor spheres were counted and quantified as relative to control.

KP^f/fC tumors = conditions: chimeric wild type versus RORγ recipient mice
K562 cells = assay: k562 colony assay in methylcellulose; assay type: cell-based, human
Text: K562 is an aggressive human leukemia cell line generated from blast crisis chronic myeloid leukemia. […] Cells were allowed to grow over the course of 8 days before the numbers of formed colonies were counted. This was used to understand the functionality of k562 cells under different conditions. Cells treated with AZD-0284 formed fewer colonies and their morphology was smaller in comparison to the vehicle-treated cells.

[6] = 90 mg/kg JTE-151, 3 weeks, compilation (FIG. 57)
[7] = 120 mg/kg JTE-151 regimen, mice that responded

Cc1ccc(NC(=O)C[C@H](CCC(=O)O)c2noc([C@H]3C[C@@H](CC(C)(C)C)C3)c2C2CC2)c(Cl)c1 [JTE-151, (4S)-6-[(2-chloro-4-methylphenyl)amino]-4-{4-cyclopropyl-5-[cis-3-(2,2-dimethylpropyl)cyclobutyl]isoxazol-3-yl}-6-oxohexanoic acid]
EpCam+/CD133+ tumor stem cells ([1]; 30 mg/kg JTE-151 once daily for about 3 weeks (FIG. 52)): loss | mice that did not show a response ([1]; 90 mg/kg JTE-151 (FIG. 56)): 1 out of 5 | EpCam+/CD133+ tumor stem cells [1, 6]: loss | tumor mass [1, 6]: reduced | tumor mass ([1]; 90 mg/kg JTE-151, 3 weeks, individual experiments (FIGS. 53-55)): reduced | mice that responded to the drug ([1]; 120 mg/kg JTE-151 regimen (FIGS. 59-61)): At least two of the three mice | EpCam+ tumor epithelial cells [1, 7]: loss | EpCam+/CD133+ tumor stem cells [1, 7]: loss | EpCam+/CD133+ tumor stem cells ([1]; JTE-151 at either 30 mg/kg or 90 mg/kg, 3 weeks (FIG. 58)): loss | organoid growth [2]: visibly and significantly impaired; also recorded: inhibited | organoid growth ([3]; 3 μM JTE-151 alone): inhibited | organoid growth ([3]; 3 μM JTE-151 in combination with 0.05 nM gemcitabine): inhibited

OC(c1ccc(-c2ccc(CN3CCN(Cc4ccncc4)CC3)cc2)c(F)c1)(C(F)(F)F)C(F)(F)F [SR2211]
sphere formation (KP^f/fC cells): decreased | necrosis in surrounding tissues ([4]; mouse, in vivo): no increased necrosis | large stem cell clusters ([4]; within 1 week of treatment): striking depletion | tumor sphere formation [5]: significantly reduced | impact on tumor growth, cellularity, and stem cell content (KP^f/fC tumors): equivalent

CC(=O)N1Cc2cc(S(C)(=O)=O)ccc2[C@@H]1C(=O)Nc1ccc(C(O)(C(F)(F)F)C(F)(F)F)cc1 [AZD-0284]
number of colonies formed (K562 cells; 1 μM, 3 μM, 5 μM, 10 μM, and 15 μM AZD-0284, 8 days): significant reduction | colony morphology (K562 cells; in comparison to the vehicle-treated cells): smaller
